This note sets out measurements from patent US20030082229A1, “Parenteral chlorambucil for treatment of malignant and autoimmune disease and methods of use” (priority 2001, published 2003).

The test system of series [1] is KBM-7/B5 human myeloid leukemia cell line. As to the kind of experiment: In vitro clonogenic cytotoxicity assay, KBM-7/B5. Particulars: acetone positive control. Format: cell-based. Here is the method:
The cytotoxic potential of selected solvent systems with and without CLB was determined against the two human myeloid leukemia cell lines (HL-60) (Gallagher R. Collins S, Trujillo et al: Characterization of the continuously differentiating myeloid cell line (HL-60) from a patient with acute promyelocytic leukemia. BLOOD 54:254-68, 1979) and human myeloid leukemia cell line (KBM-7/B5) (Andersson B S, Beran M, Pathak S, et al: Ph-positive chronic leukemia with near-haploid conversion in vivo and establishment of a continuously growing cell line with similar cytogenetic pattern. CANCER GENETICS AND CYTOGENET 24:335-43, 1987; Andersson B S, Collins V P, Kurzrock R, et al: KBM-7; human myeloid leukemia cell line with double Philadelphia chromosomes but lacking normal BCR and c-ABL transcripts. LEUKEMIA, 9:2100-2108, 1995). Briefly, HL-60 or KBM-7/B5 cells were suspended at a density of 5,000 cells per ml in Iscove's modified Dulbecco medium (IMDM) supplemented with 20% fetal bovine serum (FBS) and 0.3% agar as viscous support. […] Clones of>50 cells were counted under an inverted phase contrast microscope, and survival curves were constructed as described (Andersson B S, Mroue M, Britten R A, Murray D: The role of DNA damage in the resistance of human chronic myeloid leukemia cells to cyclophosphamide analogs. CANCER RESEARCH 54:5394-5400, 1994).

The format of series [2] is physicochemical.

For the compound `O=C(O)CCCc1ccc(N(CCCl)CCCl)cc1` [CLB, 4-[Bis(2-chloroethyl)amino]benzenebutanoic acid], in series [1], the “Cytotoxic activity in the formulation vs CLB dissolved in acetone, KBM-7/B5” value is “retained full cytotoxic activity”. In addition, in series [2] (DMSO), the “CLB degradation in DMSO” value is on record as “started degrading within a few hours”. The “Time CLB stable in DMSO before significant degradation” value in series [2] (DMSO, RT) is “at most 2 hours”. Besides, the “Time formulation stable after mixing with infusion fluid” value in series [2] (EtOH/lipid diluted with infusion fluid, RT, listed as Chlorambucil) was more than 24 h. In series [2] (RT, over 24 hours, FIG. 1), the “Stability (percent remaining) of infusion formulation” value is more than 90%. For the same compound, the “CLB recovered at 24 hours, diluted to 1 mg/ml” value in series [2] (primary stock diluted with NS to 1 mg/ml) is recorded as more than 95%. For the same compound, in series [2] (primary stock diluted with NS to 5 mg/ml), the “CLB recovered at 24 hours, diluted to 5 mg/ml” value is more than 95%.
